From ChEMBL document CHEMBL1127182, “DNA gyrase inhibitory and antibacterial activity of some flavones(1)” (Bioorg Med Chem Lett, 1993)
Converted amounts (≈) assume the structure as drawn. “And” between values parts separate entries of the source, which are not always exact repeats. Equal entries are not always repeated.

Columns and labels:
[1] = tested on: Escherichia coli; experiment: Tested for antibacterial activity as minimum inhibitory concentration against Escherichia coli KL-16 in the absence of polymyxin B nonapeptide (PBMN) at 0 ug/mL; format: functional
[2] = tested on: Escherichia coli; experiment: Tested for antibacterial activity as minimum inhibitory concentration against Escherichia coli KL-16 in the presence of polymyxin B nonapeptide (PBMN) at 1 ug/mL; format: functional
[3] = tested on: Escherichia coli; experiment: Tested for antibacterial activity as minimum inhibitory concentration against Escherichia coli-ss in the absence of polymyxin B nonapeptide (PBMN) at 0 ug/mL; format: functional
[4] = tested on: Escherichia coli; experiment: Tested for antibacterial activity as minimum inhibitory concentration against Escherichia coli-ss in the presence of polymyxin B nonapeptide (PBMN) at 1 ug/mL; format: functional
[5] = biological target: DNA gyrase (Escherichia coli, UniProt P0AES4+P0AES6); experiment: In vitro antibacterial activity was determined as inhibitory concentration causing 50% DNA-gyrase supercoiling inhibition (SCI); format: protein-complex assay
[6] = tested on: Stenotrophomonas maltophilia; experiment: Tested for antibacterial activity as minimum inhibitory concentration against Pseudomonas maltophilia 1057 in the presence of polymyxin B nonapeptide (PBMN) at 0 ug/mL; format: functional
[7] = tested on: Stenotrophomonas maltophilia; experiment: Tested for antibacterial activity as minimum inhibitory concentration against Pseudomonas maltophilia 1057 in the presence of polymyxin B nonapeptide (PBMN) at 1 ug/mL; format: functional
[8] = tested on: Salmonella typhimurium; experiment: Tested for antibacterial activity as minimum inhibitory concentration against Salmonella Typhimurium 701 in the absence of polymyxin B nonapeptide (PBMN) at 0 ug/mL; format: functional, Salmonella enterica subsp. enterica serovar Typhimurium; settings: Salmonella enterica
[9] = tested on: Staphylococcus epidermidis; experiment: Tested for antibacterial activity as minimum inhibitory concentration against Staphylococcus epidermidis strain OC2603; format: functional
[10] = tested on: Staphylococcus aureus; experiment: Tested for antibacterial activity as minimum inhibitory concentration against Staphylococcus aureus strain OC6538; format: functional
[11] = tested on: Salmonella typhimurium; experiment: Tested for antibacterial activity as minimum inhibitory concentration against Salmonella Typhimurium 701 in the presence of polymyxin B nonapeptide (PBMN) at 1 ug/mL; format: functional, Salmonella enterica subsp. enterica serovar Typhimurium
[12] = Escherichia coli, read-out: MIC
[13] = Staphylococcus aureus, read-out: MIC
[14] = Salmonella enterica, read-out: MIC

Row | MIC [1] | MIC [2] | MIC [3, 12] | MIC [4, 12] | IC50 [5] | MIC [6] | MIC [7] | MIC [8] | MIC [9] | MIC [10, 13] | MIC [11, 14] | MIC ([11]; Salmonella enterica) | Compound | MIC [10] | MIC [3] | MIC [4] | MIC [11]
1 | > 125 mg/L | > 125 mg/L | > 125 mg/L | > 125 mg/L | > 1760 µM | > 125 mg/L | > 125 mg/L | > 125 mg/L | > 125 mg/L | > 125 mg/L | > 125 mg/L | – | COc1cc2oc(-c3ccccc3)cc(=O)c2c(O)c1O | – | – | – | –
2 | > 125 mg/L | > 125 mg/L | > 125 mg/L | > 125 mg/L | > 1760 µM | > 125 mg/L | > 125 mg/L | > 125 mg/L | > 125 mg/L | > 125 mg/L | > 125 mg/L | – | COc1cccc(-c2cc(=O)c3c(O)cc(O)cc3o2)c1 | – | – | – | –
3 | > 125 mg/L | > 125 mg/L | > 125 mg/L | > 125 mg/L | > 1390 µM | > 125 mg/L | > 125 mg/L | > 125 mg/L | > 125 mg/L | > 125 mg/L | > 125 mg/L | – | COc1cc(-c2oc3cc(O)cc(O)c3c(=O)c2O)cc(OC)c1OC | – | – | – | –
4 | > 125 mg/L | 31.2 mg/L | 125 mg/L (≈ 414 µM) | 3.9 mg/L | 1380 µM | > 125 mg/L | > 125 mg/L | > 125 mg/L | 500 mg/L (≈ 1650 µM) | 500 mg/L (≈ 1650 µM) | 7.8 mg/L | – | O=c1c(O)c(-c2cc(O)cc(O)c2)oc2cc(O)cc(O)c12 | – | – | – | –
5 | > 125 mg/L | 62.5 mg/L | 125 mg/L (≈ 492 µM) | 7.8 mg/L | 351 µM | > 125 mg/L | 125 mg/L | > 125 mg/L | 31.2 mg/L (≈ 123 µM) | – | – | 15.6 mg/L | O=c1cc(-c2ccccc2)oc2c(O)c(O)ccc12 [7,8-DIHYDROXYFLAVONE] | 62.5 mg/L (≈ 246 µM) | – | – | –
6 | > 125 mg/L | > 125 mg/L | > 125 mg/L | > 125 mg/L | > 1970 µM | > 125 mg/L | > 125 mg/L | > 125 mg/L | > 125 mg/L | > 125 mg/L | > 125 mg/L | – | O=c1cc(-c2ccccc2)oc2cc(O)cc(O)c12 [CHRYSIN] | – | – | – | –
7 | > 125 mg/L | 7.8 mg/L | > 125 mg/L | 2 mg/L | 10.9 µM | > 125 mg/L | > 125 mg/L | > 125 mg/L | > 125 mg/L | > 125 mg/L | 31.2 mg/L | – | O=c1oc2c(O)c(O)cc3c(=O)oc4c(O)c(O)cc1c4c23 [ELLAGIC ACID] | – | – | – | –
8 | > 125 mg/L | 15.6 mg/L | 62.5 mg/L (≈ 218 µM) | 3.9 mg/L | 291 µM | > 125 mg/L | > 125 mg/L | > 125 mg/L | > 125 mg/L | > 125 mg/L | 31.2 mg/L | – | O=c1c(O)c(-c2ccc(O)c(O)c2)oc2cc(O)ccc12 [FISETIN] | – | – | – | –
9 | > 125 mg/L | > 125 mg/L | > 125 mg/L | > 125 mg/L | > 2100 µM | > 125 mg/L | > 125 mg/L | > 125 mg/L | > 125 mg/L | > 125 mg/L | > 125 mg/L | – | O=c1c(O)c(-c2ccccc2)oc2ccccc12 [FLAVONOL] | – | – | – | –
10 | > 125 mg/L | > 125 mg/L | > 125 mg/L | > 125 mg/L | > 1850 µM | > 125 mg/L | > 125 mg/L | > 125 mg/L | > 125 mg/L | > 125 mg/L | > 125 mg/L | – | O=c1c(O)c(-c2ccccc2)oc2cc(O)cc(O)c12 [GALANGIN] | – | – | – | –
11 | > 125 mg/L | > 125 mg/L | > 125 mg/L | > 125 mg/L | > 1670 µM | > 125 mg/L | > 125 mg/L | > 125 mg/L | > 125 mg/L | > 125 mg/L | > 125 mg/L | – | COc1ccc(-c2oc3cc(O)cc(O)c3c(=O)c2O)cc1 [KAEMPFERIDE] | – | – | – | –
12 | 0.0625 mg/L (≈ 0.173 µM) | < 0.015 mg/L | < 0.5 mg/L | < 0.5 mg/L | – | 2 mg/L | 1 mg/L | 0.125 mg/L (≈ 0.346 µM) | ≤ 0.5 mg/L | ≤ 0.5 mg/L | 0.0625 mg/L | – | CC1COc2c(N3CCN(C)CC3)c(F)cc3c(=O)c(C(=O)O)cn1c23 (stereo not given) [OFLOXACIN] | – | – | – | –

Row | Compound | MIC [1] | MIC [2] | MIC [3, 12] | MIC [4, 12] | IC50 [5] | MIC [6] | MIC [7] | MIC [8] | MIC [9] | MIC [10, 13] | MIC [11, 14] | MIC ([11]; Salmonella enterica) | MIC [10] | MIC [3] | MIC [4] | MIC [11]
13 | O=c1cc(-c2ccc(O)cc2)oc2cc(O)cc(O)c12 [APIGENIN] | > 125 mg/L | > 125 mg/L | > 125 mg/L | 7.8 mg/L | 250 µM | > 125 mg/L | > 125 mg/L | > 125 mg/L | > 125 mg/L | > 125 mg/L | 15.6 mg/L | – | – | – | – | –
14 | O=c1c(O)c(-c2cc(O)c(O)c(O)c2)oc2cc(O)cc(O)c12 [MYRICETIN] | > 125 mg/L | 15.6 mg/L | 62.5 mg/L (≈ 196 µM) | 3.9 mg/L | 707 µM | > 125 mg/L | 125 mg/L | > 125 mg/L | 62.5 mg/L (≈ 196 µM) | 125 mg/L (≈ 393 µM) | 15.6 mg/L | – | – | – | – | –
15 | CCn1cc(C(=O)O)c(=O)c2ccc(C)nc21 [NALIDIXIC ACID] | 2 mg/L (≈ 8.61 µM) | 0.5 mg/L | 0.5 mg/L (≈ 2.15 µM) | 0.125 mg/L | – | 62.5 mg/L | 15.6 mg/L | 3.9 mg/L (≈ 16.8 µM) | 250 mg/L (≈ 1080 µM) | 500 mg/L (≈ 2150 µM) | 2 mg/L | – | – | – | – | –
16 | O=c1c(O)c(-c2ccc(O)c(O)c2)oc2cc(O)cc(O)c12 [QUERCETIN] | > 125 mg/L | – | 62.5 mg/L (≈ 207 µM) | 2 mg/L | 182 µM and 156 µM | > 125 mg/L | > 125 mg/L | > 125 mg/L | – | 62.5 mg/L (≈ 207 µM) | – | – | >125 mg/L | 31.25 mg/L (≈ 103 µM) | 1 mg/L | 15.6 mg/L and 31.25 mg/L
